Assay results taken from ChEMBL document CHEMBL1154407, “Tick acquisition of Ehrlichia canis from dogs treated with doxycycline hyclate” (Antimicrob Agents Chemother, 2007).
Active and inactive are the calls of the source.

Tests used:
Format in all cases: functional, organism-based
Parameters in all cases: dose 10 mg/kg
Ehrlichia canis [1] = experiment: Antimicrobial activity against Ehrlichia canis infected in Beagle dog AIP with brown dog tick assessed as infected ticks at 10 mg/kg, po once daily for 14 days measured 7 days post-tick attachment after drug administration by PCR
Ehrlichia canis [2] = experiment: Antimicrobial activity against Ehrlichia canis infected in Beagle dog AHG at 10 mg/kg, po once daily for 14 days measured 76 days post-tick attachment after drug administration by PCR
Ehrlichia canis [3] = experiment: Antimicrobial activity against Ehrlichia canis infected in Beagle dog AUF at 10 mg/kg, po once daily for 14 days measured 104 days post-tick attachment after drug administration by PCR
Ehrlichia canis [4] = experiment: Antimicrobial activity against Ehrlichia canis infected in Beagle dog AIP at 10 mg/kg, po once daily for 14 days measured 83 days post-tick attachment after drug administration by PCR
Ehrlichia canis [5] = experiment: Antimicrobial activity against Ehrlichia canis infected in Beagle dog AHK at 10 mg/kg, po once daily for 14 days measured 55 days post-tick attachment after drug administration by PCR

Measured: Activity

C[C@H]1c2cccc(O)c2C(=O)C2=C(O)[C@]3(O)C(=O)C(C(N)=O)=C(O)[C@@H](N(C)C)[C@@H]3[C@@H](O)[C@@H]21
inactive: Ehrlichia canis [1] | Ehrlichia canis [2] | Ehrlichia canis [3] | Ehrlichia canis [4] | Ehrlichia canis [5]
